These results are taken from patent publication US20250032429A1, “2-FLUORODESCHLO[…] TREATMENT OF DEPRESSION, INCLUDING TREATMENT-RESISTANT DEPRESSION” (CLEARMIND MEDICINE INC., priority 2021, published 2025).

Counter-ions that a name gives are not always drawn.

Assay [1] in a line: Dose-response of arylcyclohexamines: intensity of experience after nasal spray, Shulgin + rating. In kind it is in vivo. The note with it: for dose-response curve (shape): administered in the same way, FIG. 1, FIG. 2; for 2-DCK effect / 2-FDCK effect / OPCE effect / Ketamine effect: nasal spray, Shulgin + scale as 1-4; for dosage effective as lower threshold: initial experimentation, logarithmic dosing. As for the experimental part:
For safety reasons, when exploring novel psychoactives—the logarithmic scale is adopted for initial dosing to get an idea of whether or not a compound is active and if so, at what dosage ranges.
Following this initial experimentation with OPCE, 2-DCK, and 2-FDCK (Ketamine was later added to the study for reference) it was clear that dosages of 3 mg, 15 mg, and 30 mg, correspondingly, were effective as lower thresholds for further exploration. It was decided to multiply the lower threshold doses by 2, 3 & 4 to explore the effects of higher doses on the mind. Every several days a portion of one of the compounds was measured out on an Ohaus Scout balance scale and prepared for administration via nasal spray using a refillable nasal spray bottle.
The goals were to score a “+” ranking for effect and keep an open mind to look out for any other noteworthy observations. The Shulgin “+” based rating system (SHULGIN, A. T., & SHULGIN, A. (1991). Pihkal: a chemical love story. Berkeley, CA, Transform Press, page 964) for psychedelic experiences was chosen for a yearlong exploration of these various arylcylohexamines. Although the target family of molecules and the type of experience were different from the rating systems' original design, the scale's simplicity yields itself particularly well to this kind of exploration for a few reasons: • (1) The experience rendered by novel psychedelics is often ineffable.
It was therefore desirable to use the simple +, ++, +++, ++++ as 1, 2, 3, 4 to rate intensity of experience without seeking an objective measure for intensity.
When the dosages are adjusted to units that make all dose/response curves fit on the same graph then running a spline through the data points gives us curves that resemble, qualitatively, the curves appearing in FIG. 2.

Assay [2] deals with N-methyl-D-aspartate (NMDA) receptor. The note with it: S-enantiomer compared with ketamine; cited from earlier work.
For assay [3], the system named is C57BL/6N mice. In words: Mouse forced swim test (FST), two-day paradigm. Format: in vivo. As to conditions: i.p. in saline 30 minutes prior to FST; day 2, final 4 minutes of 6 minute session; vs vehicle. As for the experimental part: Male 10 week C57BL/6N mice (Taconic) are acclimated to a holding facility one week prior to testing. A two-day FST paradigm is employed, in which mice are exposed to a 10 minute test in absence of drug, and are tested the following day in presence of drug in a 6 minute test. 2-FDCK is administered intraperitoneally (i.p.) in saline vehicle 30 minutes prior to FST. All animals are drug naïve and not previously exposed to behavioral testing.
Male C57BL6N/Tac mice 10 weeks of age are housed four mice per cage under a 12:12 h light/dark cycle and are allowed to acclimate for approximately one week prior to behavioral procedures. Food and water is provided ad libitum. All procedures followed the National Institutes of Health Guide for the Care and Use of Laboratory Animals.
2-FDCK is dissolved in a saline vehicle (0.9% sodium chloride). For the 2-FDCK dose response experiment, mice receive vehicle or varying doses of 2-FDCK i.p. 30 minutes prior to behavior testing.
Mice are tested in a two day forced swim test (FST) procedure. […] On day 2, mice receive i.p. injections 30 minutes prior to being placed in a cylinder for a 6 minute session and immobility time is scored during the final 4 minutes.

The subject of assay [4] is patients with major depressive disorders. The note with it: cited from earlier work.

For `CNC1(c2ccccc2)CCCCC1=O` (centres unmarked) [2-DCK], the “dose-response curve (shape)” value in assay [1] was “dose-response curves that start rising sharply at low doses”. The 2-DCK effect is 1 in assay [1] (dosage 15 (mg)); 1 in assay [1] (dosage 16 (mg)); 1 in assay [1] (dosage 17 (mg)); 1 in assay [1] (dosage 18 (mg)); 3 in assay [1] (dosage 28 (mg)); 3 in assay [1] (dosage 29 (mg)). Also, the 2-DCK effect in assay [1] (dosage 31 (mg)) stood at 3; in assay [1] (dosage 33 (mg)) it was 3; in assay [1] (dosage 42 (mg)), 4; in assay [1] (dosage 43 (mg)), 4; in assay [1] (dosage 44 (mg)) it was 4; in assay [1] (dosage 45 (mg)) it was 4. The 2-DCK effect in assay [1] (dosage 46 (mg)), in assay [1] (dosage 57 (mg)), in assay [1] (dosage 58 (mg)), in assay [1] (dosage 61 (mg)) and in assay [1] (dosage 62 (mg)) was 4 in each case. In addition, the “dosage effective as lower threshold” value in assay [1] stood at 15 mg.
In the case of `CN[C@]1(c2ccccc2Cl)CCCCC1=O` [S-ketamine, (S)-2-(2-chlorophenyl)-2-(methylamino)cyclohexanone hydrochloride], the “potency or affinity for the NMDA receptor” value in assay [2] is listed as “higher potency or affinity for the NMDA reception”.
Regarding `CNC1(c2ccccc2F)CCCCC1=O` (centres unmarked) [2-FDCK, 2-(2-fluorophenyl)-2-(methylamino)cyclohexan-1-one], the immobility time result in assay [3] is reported as “shorter immobility times relative to mice receiving vehicle alone”. Further, the “dose-response curve (shape)” value in assay [1] is given as “flatter than the dose-response curve for Ketamine”. In addition, the 2-FDCK effect in assay [1] (dosage 28 (mg)), in assay [1] (dosage 29 (mg)), in assay [1] (dosage 30 (mg)), in assay [1] (dosage 31 (mg)), in assay [1] (dosage 32 (mg)) and in assay [1] (dosage 33 (mg)) was 1 each time. Also, the 2-FDCK effect came to 1 in assay [1] (dosage 35 (mg)); 2 in assay [1] (dosage 55 (mg)); 2 in assay [1] (dosage 57 (mg)); 2 in assay [1] (dosage 58 (mg)); 2 in assay [1] (dosage 61 (mg)); 2 in assay [1] (dosage 62 (mg)). The 2-FDCK effect in assay [1] (dosage 88 (mg)) is 3; in assay [1] (dosage 90 (mg)) it was 3; in assay [1] (dosage 91 (mg)), 3; in assay [1] (dosage 114 (mg)), 4; in assay [1] (dosage 116 (mg)), 4; in assay [1] (dosage 122 (mg)) it was 4. The 2-FDCK effect in assay [1] (dosage 124 (mg)) stood at 4. Further, the “dose response curve (shape) compared to S-ketamine” value in assay [1] (in treating patients with depression, specifically TRD) is “flatter dose response curve compared to S-ketamine”. For the same molecule, the “dosage effective as lower threshold” value in assay [1] is on record as 30 mg.
Regarding `CCNC1(c2ccccc2)CCCCC1=O` (centres unmarked) [OPCE], the “dose-response curve (shape)” value in assay [1] is recorded as “dose-response curves that start rising sharply at low doses”. Further, the OPCE effect was 1 in assay [1] (dosage 3 (mg)); 1 in assay [1] (dosage 4 (mg)); 1 in assay [1] (dosage 6 (mg)); 2 in assay [1] (dosage 9 (mg)); 4 in assay [1] (dosage 11 (mg)); 4 in assay [1] (dosage 12 (mg)). Besides, the “dosage effective as lower threshold” value in assay [1] stood at 3 mg.
In the case of `CNC1(c2ccccc2Cl)CCCCC1=O` (racemic) [Ketamine], the Ketamine effect is recorded as 1 in assay [1] (dosage 28 (mg)); 1 in assay [1] (dosage 31 (mg)); 1 in assay [1] (dosage 32 (mg)); 2 in assay [1] (dosage 55 (mg)); 2 in assay [1] (dosage 58 (mg)); 2 in assay [1] (dosage 59 (mg)). The Ketamine effect worked out at 2 in assay [1] (dosage 62 (mg)); 3 in assay [1] (dosage 89 (mg)); 4 in assay [1] (dosage 90 (mg)); 4 in assay [1] (dosage 92 (mg)); 4 in assay [1] (dosage 114 (mg)); 4 in assay [1] (dosage 120 (mg)). For the same molecule, the Ketamine effect in assay [1] (dosage 122 (mg)) is on record as 4. In assay [4], the “onset of antidepressant effect” value is “rapid antidepressant effect, acting within two hours”.
